pIC50, pKd: −log10 of the molar value.
What was measured:
[1] = target: Proto-oncogene tyrosine-protein kinase Src (Homo sapiens, UniProt P12931); assay: Inhibition of c-Src (unknown origin)
[2] = target: T1, Wee1-like protein kinase (Homo sapiens, UniProt P30291); assay: Binding affinity to Wee1 (unknown origin) assessed as dissociation constant
[3] = target: T1, Wee1-like protein kinase; assay: Inhibition of recombinant Wee1 (unknown origin) incubated for 1 hr by TR-FRET assay
[4] = test system: A549; assay: Antiproliferative activity against human A549 cells by MTS based Cell Titer 96 viability assay; format: functional
[5] = target: T1, Wee1-like protein kinase; assay: Inhibition of human full length N-terminal GST tagged Wee1 expressed in E coli
[6] = target: T1, Wee1-like protein kinase; assay: Inhibition of recombinant Wee1 (unknown origin) by TR-FRET assay
[7] = test system: MDA-MB-231; assay: Antiproliferative activity against human MDA-MB-231 cells
[8] = target: T2, Serine/threonine-protein kinase Chk1 (Homo sapiens, UniProt O14757); assay: Inhibition of CHK1 (unknown origin)
T2 sequence (O14757 whole entry): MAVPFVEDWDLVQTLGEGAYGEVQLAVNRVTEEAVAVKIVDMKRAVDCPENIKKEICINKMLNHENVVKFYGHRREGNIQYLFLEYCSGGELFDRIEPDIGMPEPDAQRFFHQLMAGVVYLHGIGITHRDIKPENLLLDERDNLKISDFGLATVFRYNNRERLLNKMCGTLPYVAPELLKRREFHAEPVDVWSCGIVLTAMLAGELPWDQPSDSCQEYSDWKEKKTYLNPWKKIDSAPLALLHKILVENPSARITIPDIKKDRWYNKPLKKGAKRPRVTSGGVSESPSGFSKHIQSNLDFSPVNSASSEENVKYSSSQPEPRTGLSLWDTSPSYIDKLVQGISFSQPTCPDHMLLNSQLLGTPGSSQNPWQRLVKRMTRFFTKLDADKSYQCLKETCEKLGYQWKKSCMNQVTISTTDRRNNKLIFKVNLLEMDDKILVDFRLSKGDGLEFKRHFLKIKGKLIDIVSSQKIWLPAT

T1 sequence (P30291 whole entry): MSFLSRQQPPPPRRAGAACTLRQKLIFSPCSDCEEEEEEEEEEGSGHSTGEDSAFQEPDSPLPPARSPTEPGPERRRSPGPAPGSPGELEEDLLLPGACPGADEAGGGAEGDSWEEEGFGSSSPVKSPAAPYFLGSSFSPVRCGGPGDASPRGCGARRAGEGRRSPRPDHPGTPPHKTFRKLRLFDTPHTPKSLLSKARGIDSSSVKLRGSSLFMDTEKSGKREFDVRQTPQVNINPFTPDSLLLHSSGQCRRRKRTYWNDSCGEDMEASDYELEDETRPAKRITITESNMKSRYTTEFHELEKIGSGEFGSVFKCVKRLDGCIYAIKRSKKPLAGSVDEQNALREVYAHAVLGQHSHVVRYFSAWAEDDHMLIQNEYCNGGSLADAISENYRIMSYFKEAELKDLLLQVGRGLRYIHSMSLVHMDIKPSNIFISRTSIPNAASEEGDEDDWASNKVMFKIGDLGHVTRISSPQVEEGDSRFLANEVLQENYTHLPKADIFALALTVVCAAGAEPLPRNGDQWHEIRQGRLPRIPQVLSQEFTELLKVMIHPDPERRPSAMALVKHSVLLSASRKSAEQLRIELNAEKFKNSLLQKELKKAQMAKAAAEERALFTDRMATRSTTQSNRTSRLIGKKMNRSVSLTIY
Chain of Proto-oncogene tyrosine-protein kinase Src (P12931 2-536 limits assumed): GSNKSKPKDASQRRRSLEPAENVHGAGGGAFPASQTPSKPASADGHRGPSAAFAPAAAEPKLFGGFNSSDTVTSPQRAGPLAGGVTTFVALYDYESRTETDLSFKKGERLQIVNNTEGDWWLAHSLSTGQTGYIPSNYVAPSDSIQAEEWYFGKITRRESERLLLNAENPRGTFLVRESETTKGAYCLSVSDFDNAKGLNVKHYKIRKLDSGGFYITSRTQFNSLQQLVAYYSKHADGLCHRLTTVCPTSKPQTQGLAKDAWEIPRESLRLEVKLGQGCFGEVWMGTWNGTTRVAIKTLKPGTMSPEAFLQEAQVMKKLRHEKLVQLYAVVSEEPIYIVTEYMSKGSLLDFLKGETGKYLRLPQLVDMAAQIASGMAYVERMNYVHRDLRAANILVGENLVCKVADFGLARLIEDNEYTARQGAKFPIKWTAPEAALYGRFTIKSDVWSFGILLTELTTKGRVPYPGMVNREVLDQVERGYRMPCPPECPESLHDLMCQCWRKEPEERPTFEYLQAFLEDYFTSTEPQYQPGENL

| pIC50 [1] | SMILES | also measured |
| --- | --- | --- |
| 7.89 | Cn1c(=O)c(-c2c(Cl)cccc2Cl)cc2cnc(Nc3ccc(CC(N)=O)cc3)nc21 | – |
| 6.44 | CCN(CC)CCOc1ccc(Nc2ncc3c(C)c(-c4c(C)cccc4C)c(=O)n(C)c3n2)cc1 | – |
| < 4.30 | CCN(CC)CCOc1ccc(Nc2ncc3c(C)c(-c4ccccc4Cl)c(=O)n(C)c3n2)cc1 | – |
| 7.64 | CCN(CC)CCOc1ccc(Nc2ncc3cc(-c4c(C)cccc4C)c(=O)n(C)c3n2)cc1 | – |
| 8.40 | Cn1c(=O)c(-c2c(Cl)cccc2Cl)cc2cnc(Nc3ccc(OCCCC(=O)O)cc3)nc21 | – |
| 7.85 | Cc1cccc(C)c1-c1cc2cnc(Nc3ccccc3)nc2n(C)c1=O | – |
| 7.00 | Cn1c(=O)c(-c2c(Cl)ccc(O)c2Cl)cc2cnc(Nc3ccc(OCCCC(=O)O)cc3)nc21 | – |
| – | CC(=O)NCC(=O)N1[C@@H]2CC[C@H]1c1cc(Nc3ncc(C(F)(F)F)c(NC4CCC4)n3)ccc12 | pKd [2]: 7.10 |
| – | C=CCn1c(=O)c2cnc(Nc3ccc(N4CCN(C(=O)OC)CC4)cc3)nc2n1-c1cccc(C(C)(C)O)n1 | pIC50 [3]: 7.56 |
| – | CCOC(=O)N1CCc2c(sc3nc(SCC(=O)c4ccccc4)n(N)c(=O)c23)C1 | pIC50 [4]: 4.75; pIC50 [5]: 4.65 |
| – | C=CCn1c(=O)c2cnc(Nc3ccc(CCN(C)C)cc3)nc2n1-c1cccc(C(C)(C)O)n1 | pIC50 [6]: 8.77 |
| – | COc1cc(Nc2c(C#N)cnc3cc(OCCCN4CCN(C)CC4)c(OC)cc23)c(Cl)cc1Cl [BOSUTINIB] | pIC50 [7]: 5.74 |
| – | CCN(CC)CCOc1ccc(Nc2ncc3cc(-c4c(Cl)cccc4Cl)c(=O)n(C)c3n2)cc1 [PD-0166285] | pIC50 [8]: 7.14 |

— ChEMBL document CHEMBL5230094, “Structure-activity relationships of Wee1 inhibitors: A review” (Eur J Med Chem, 2020)
